The values that follow come from ChEMBL document CHEMBL1156020, “Synthesis and antiviral activity of HCV NS3/4A peptidomimetic boronic acid inhibitors” (Bioorg Med Chem Lett, 2009).

For experiment [1], the system named is Hepatitis C virus. Description: Inhibition of HCV1b con1 NS3/4A protease after 20 mins by FRET-based assay. Set-up: species or system Hepacivirus hominis. The settings on record: Con1, 20 min.
The subject of experiment [2] is Hepatitis C virus. Description: Antiviral activity against HCV infected in human Huh-luc/neo-ET cells after 72 hrs by replicon assay. The format is functional, organism-based, Hepacivirus hominis.
Experiment [3] in a line: Inhibition of HCV1a wild type NS3/4A protease after 20 mins by FRET-based assay. Also noted: species or system Hepatitis C virus subtype 1a.
The subject of experiment [4] is Hepatitis C virus. Description: Selectivity ratio of IC50 for HCV1b con1 wild type NS3/4A protease over IC50 for HCV1b con1 NS3/4A protease A156T mutant. Set-up: species or system Hepacivirus hominis.
Experiment [5] relates to Hepatitis C virus. In words: Selectivity ratio of IC50 for HCV1b con1 wild type NS3/4A protease over IC50 for HCV1b con1 NS3/4A protease A156S mutant. Also noted: species or system Hepacivirus hominis.
Experiment [6] relates to Hepatitis C virus. Description: Selectivity ratio of IC50 for HCV1b con1 wild type NS3/4A protease over IC50 for HCV1b con1 NS3/4A protease D168A mutant. Set-up: species or system Hepacivirus hominis.
Experiment [7] can be described thus: Inhibition of HCV2a wild type NS3/4A protease after 20 mins by FRET-based assay. Set-up: species or system Hepatitis C virus subtype 2a.
Experiment [8] deals with Hepatitis C virus. Description: Selectivity ratio of IC50 for HCV1b con1 wild type NS3/4A protease over IC50 for HCV1b con1 NS3/4A protease R155K mutant. Set-up: species or system Hepacivirus hominis.
The subject of experiment [9] is Hepatitis C virus. In words: Selectivity ratio of IC50 for HCV1b con1 wild type NS3/4A protease over IC50 for HCV1b con1 NS3/4A protease A156V mutant. Set-up: species or system Hepacivirus hominis.
A short description of experiment [10]: Inhibition of HCV3a wild type NS3/4A protease after 20 mins by FRET-based assay. Also noted: species or system Hepatitis C virus subtype 3a.
The subject of experiment [11] is Hepatitis C virus. In words: Selectivity ratio of IC50 for HCV1b con1 wild type NS3/4A protease over IC50 for HCV1b con1 NS3/4A protease T54A mutant. Also noted: species or system Hepacivirus hominis.

A value given as a limit tells only on which side of the number the result lay.

`CCC[C@H](NC(=O)[C@@H]1C[C@@H](OC(=O)N2Cc3ccccc3C2)CN1C(=O)[C@@H](NC(=O)OCC)C(C)(C)C)B1O[C@@H]2C[C@@H]3C[C@@H](C3(C)C)[C@]2(C)O1` registered an IC50 with Hepatitis C virus [1] of 2 nM. Moreover, a half-maximal effect in the experiment on Hepatitis C virus [2] (EC50) was put at 230 nM.

Turning to `CCC[C@H](NC(=O)[C@@H]1C[C@@H](OC(=O)N2Cc3ccccc3C2)CN1C(=O)[C@@H](NC(=O)OCCF)C(C)(C)C)B1O[C@@H]2C[C@@H]3C[C@@H](C3(C)C)[C@]2(C)O1`, the half-maximal inhibitory concentration (IC50) with Hepatitis C virus [1] came out at 2 nM. Moreover, a half-maximal response in the experiment on Hepatitis C virus [2] (EC50) required 408 nM.

As to `CCC[C@H](NC(=O)[C@@H]1C[C@@H](OC(=O)N2Cc3ccccc3C2)CN1C(=O)[C@@H](NC(=O)C(O)C(C)(C)C)C(C)(C)C)B1O[C@@H]2C[C@@H]3C[C@@H](C3(C)C)[C@]2(C)O1` (some centres undefined), in the experiment on Hepatitis C virus [1], the IC50 turned out to be 3 nM. The EC50 with Hepatitis C virus [2] is more than 1000 nM.

In the experiment with Hepatitis C virus [1], `CCC[C@H](NC(=O)[C@@H]1C[C@@H](OC(=O)N2Cc3ccccc3C2)CN1C(=O)[C@@H](NC(=O)OC(C)(C)C)C(C)(C)C)B1O[C@@H]2C[C@@H]3C[C@@H](C3(C)C)[C@]2(C)O1` came in with an IC50 of 0.8 nM. Besides, a half-maximal response in the experiment with Hepatitis C virus [2] (EC50) required 93 nM.

Compound `CCC[C@H](NC(=O)[C@@H]1C[C@@H](OC(=O)N2Cc3ccccc3C2)CN1C(=O)[C@@H](N)C(C)(C)C)B1O[C@@H]2C[C@@H]3C[C@@H](C3(C)C)[C@]2(C)O1` gave an IC50 in the experiment with Hepatitis C virus [1] of 3200 nM.

Compound `CC(C)(C)OC(=O)N[C@H](C(=O)N1C[C@H](OC(=O)N2Cc3ccccc3C2)C[C@H]1C(=O)NC1(B(O)O)CC1)C1CCCCC1` registered an IC50 with Hepatitis C virus [1] of 3350 nM.

For the compound `CC[C@H](NC(=O)[C@@H]1C[C@@H](OC(=O)N2Cc3ccccc3C2)CN1C(=O)[C@@H](NC(=O)OC(C)(C)C)C(C)(C)C)B(O)O`, 2 nM corresponded to half-maximal inhibition in the experiment with Hepatitis C virus [1] (IC50). Also, the EC50 with Hepatitis C virus [2] stood at 98 nM.

Turning to `CCC[C@H](NC(=O)[C@@H]1C[C@@H](OC(=O)N2Cc3ccccc3C2)CN1C(=O)[C@@H](NC(=O)N[C@H](CN(C)S(C)(=O)=O)C(C)(C)C)C(C)(C)C)B(O)O`, the half-maximal inhibitory concentration (IC50) was determined as 0.3 nM in experiment [3], 0.6 nM in experiment [7], 0.5 nM in the experiment on Hepatitis C virus [1] and 0.9 nM in experiment [10]. Besides, the “Ratio IC50” value in the experiment with Hepatitis C virus [4] is reported as less than 4; in the experiment with Hepatitis C virus [5], less than 4; with Hepatitis C virus [6], less than 4; in the experiment with Hepatitis C virus [8], 6; in the experiment on Hepatitis C virus [9], 12; with Hepatitis C virus [11] it was 8. Further, the response in the experiment on Hepatitis C virus [2] was half-maximal at 25 nM (EC50).

On to `CCC[C@H](NC(=O)[C@@H]1C[C@@H](OC(=O)N2Cc3ccccc3C2)CN1C(=O)[C@@H](NS(C)(=O)=O)C(C)(C)C)B1O[C@@H]2C[C@@H]3C[C@@H](C3(C)C)[C@]2(C)O1`, for which, in the experiment with Hepatitis C virus [1], the midpoint of inhibition, the IC50, lay at 11 nM. In the experiment with Hepatitis C virus [2], this compound displayed an EC50 of more than 1000 nM.

With `CCC[C@H](NC(=O)[C@@H]1C[C@@H](OC(=O)N2Cc3ccccc3C2)CN1C(=O)[C@@H](NC(=O)OCCN1CCCC1)C(C)(C)C)B1O[C@@H]2C[C@@H]3C[C@@H](C3(C)C)[C@]2(C)O1`, in the experiment with Hepatitis C virus [1], the midpoint of inhibition, the IC50, lay at 5 nM. In the experiment with Hepatitis C virus [2], this compound showed an EC50 of more than 1000 nM.

`CCC[C@H](NC(=O)[C@@H]1C[C@@H](OC(=O)N2Cc3ccccc3C2)CN1C(=O)[C@@H](NC(=O)NCCN(CC)CC)C(C)(C)C)B1O[C@@H]2C[C@@H]3C[C@@H](C3(C)C)[C@]2(C)O1` displayed an IC50 in the experiment on Hepatitis C virus [1] of 27 nM. Moreover, the EC50 in the experiment on Hepatitis C virus [2] is more than 1000 nM.

With `CCC[C@H](NC(=O)[C@@H]1C[C@@H](OC(=O)N2Cc3ccccc3C2)CN1C(=O)[C@@H](NC(=O)OC(C)(C)C)C1CCCCC1)B(O)O`, the concentration for half-maximal inhibition (IC50) in the experiment on Hepatitis C virus [1] was determined as 2 nM. The compound further came in with an EC50 with Hepatitis C virus [2] of 110 nM.

`CCC[C@H](NC(=O)[C@@H]1C[C@@H](OC(=O)N2Cc3ccccc3C2)CN1C(=O)[C@@H](NC(=O)OCC(C)(C)C)C(C)(C)C)B1O[C@@H]2C[C@@H]3C[C@@H](C3(C)C)[C@]2(C)O1`: the IC50 in the experiment with Hepatitis C virus [1] is 0.7 nM. In the experiment on Hepatitis C virus [2], this compound gave an EC50 of 41 nM.

`CCC[C@H](NC(=O)[C@@H]1C[C@@H](OC(=O)N2Cc3ccccc3C2)CN1C(=O)[C@@H](NC(=O)OCC(C)C)C(C)(C)C)B1O[C@@H]2C[C@@H]3C[C@@H](C3(C)C)[C@]2(C)O1` showed a half-inhibitory concentration (IC50) in the experiment on Hepatitis C virus [1] of 0.3 nM. This compound also gave an EC50 in the experiment with Hepatitis C virus [2] of 54 nM.

On to `CCC[C@H](NC(=O)[C@@H]1C[C@@H](OC(=O)N2Cc3ccccc3C2)CN1C(=O)[C@@H](NC(=O)OC(C)(C)C)C(C)(C)C)B(O)O`, for which the 50% inhibitory concentration (IC50) in experiment [3] was determined as 2 nM; in [7], 21 nM; in the experiment on Hepatitis C virus [1] it was 1 nM; in experiment [10], 61 nM. In addition, the “Ratio IC50” value in the experiment with Hepatitis C virus [4] was 70; in the experiment on Hepatitis C virus [5] it was 5; in the experiment with Hepatitis C virus [6], 61; in the experiment with Hepatitis C virus [8] it was 109; in the experiment on Hepatitis C virus [9], 158; in the experiment on Hepatitis C virus [11], 121. In the experiment with Hepatitis C virus [2], this compound returned an EC50 of 69 nM.

With `CC(C)(C)OC(=O)N[C@H](C(=O)N1C[C@H](OC(=O)N2Cc3ccccc3C2)C[C@H]1C(=O)N[C@@H](CC1CCC1)B(O)O)C(C)(C)C`, the IC50 in the experiment on Hepatitis C virus [1] amounted to 2 nM. Besides, the EC50 in the experiment with Hepatitis C virus [2] was 171 nM.

`CC[C@H](NC(=O)[C@@H]1C[C@@H](OC(=O)N2Cc3ccccc3C2)CN1C(=O)[C@@H](NC(=O)OC(C)(C)C)C1CCCCC1)B(O)O`: the IC50 in experiment [3] stood at 0.9 nM; in experiment [7] it was 6 nM; in the experiment on Hepatitis C virus [1] it was 1 nM; in experiment [10] it was 23 nM. In addition, the “Ratio IC50” value in the experiment on Hepatitis C virus [4] was 40; in the experiment on Hepatitis C virus [5], 4; in the experiment on Hepatitis C virus [6], 47; with Hepatitis C virus [8], 63; in the experiment on Hepatitis C virus [9], 64; in the experiment with Hepatitis C virus [11], 69. This compound also yielded an EC50 with Hepatitis C virus [2] of 71 nM.
